Legend:
[1] = biological target: T1, serotonin reuptake site (Rattus norvegicus, UniProt P31652); experiment: Affinity for serotonin reuptake sites ([3H]-paroxetine competition binding); conditions: [3H]-paroxetine 1.0 nM, rat frontal cortex membranes, 2 hours at 25° C., pH 7.4; read-out: pKi (-log Ki), affinity for serotonin reuptake sites (converted)
T1 construct: The membranes are prepared from rat frontal cortex; from tissue; host or cells: rat frontal cortex membranes
Description: The incubation buffer contains […] TRIS-HCl (pH 7.4), 120 mM NaCl and 5 mM KCl. The non-specific binding is determined using 10 μM citalopram. At the end of the incubation, the incubation medium is filtered and washed three times with 5 ml of cooled buffer. The radioactivity retained on the filters is determined by liquid scintillation counting. The binding isotherms are analysed by non-linear regression to determine the IC50 values. Those values are converted into a dissociation constant (Ki) using the Cheng-Prusoff equation: […]
The results are expressed in pKi (-log Ki).

[2] = test system: male CD mice; experiment: Test of aggressiveness in isolated mice; assay type: in vivo; conditions: Mus musculus, ip, 0.5 h; i.p.; treatment 30 minutes before pairing; 3 minutes observation; read-out: Inhibitory Dose 50 of the number or duration of the attacks
Excerpt: This test allows the evaluation of the intraspecies anti-aggressive activity of a product in mice that have been kept in isolation for several months.
The test uses male CD mice (Charles River) weighing from 22 to 25 g when they arrive at the animal house. On their arrival, the animals are isolated in individual cages made of opaque black polycarbonate (23×14×13 cm) with a grill lid, and are housed for a prolonged period (approximately six months) in the experimentation room.
The selection of aggressive pairs of mice that will be used for an extended period in the study commences after the animals have been isolated for one month. Once or twice per week a mouse from another cage (intruder) is placed in the cage of a (resident) mouse and the two animals are observed to see if they attack one another (sniffing, pursuing, nicking, biting) during that trial. At the end of the trial (maximum duration 10 minutes), each mouse is isolated again in its own cage. If attacks have occurred, the same pair will be tested again in the next trial; if there have been no attacks, each mouse of that pair will be placed in the presence of another mouse in the subsequent trial. […]
The test takes place once a week. […] The latent period (in seconds) of the first attack and the number and total duration (in seconds) of the attacks are recorded. […]

[3] = test system: levels of serotonin, dopamine and noradrenaline in cingulate frontal cortex; experiment: Microdialysis experiment in the rat (frontal cortex); assay type: in vivo; conditions: 10 mg/kg subcutaneous, baseline defined as 0%
Description: Rats are anaesthetised with pentobarbital (60 mg/kg i.p.). They are placed in a Kopf stereotaxic device and the cannula guide is implanted in the cingulate frontal cortex in accordance with the coordinates described in the Paxinos and Watson atlas (1982) as follows: AP=+2.2; L=±0.6; DV=-0.2. The rats are placed in separate cages and are not used in dialysis until 5 days later. […] The probe is perfused at a flow rate of 1 μl/min. with a solution of 147.2 mM NaCl, 4 mM KCl and 2.3 mM CaCl2 adjusted to pH 7.3 with a phosphate buffer (0.1 M). Two hours after implantation, samples are collected every 20 minutes for 4 hours. Three baseline samples are taken before administration of the products to be tested. The rats are left in their individual cages for the whole of the experiment. When the experiment is finished, the rats are decapitated and the brain is removed and frozen in isopentane. Sections of a thickness of 100 μm are cut and stained with cresyl violet, which allows verification of the location of the probes. The simultaneous quantification of dopamine, norepinephrine and serotonin is carried out as follows: 20 μl of dialysis sample are diluted with 20 μl of mobile phase (NaH2 PO4 : 75 mM; EDTA: 20 μM; sodium 1-decanesulphonate: 1 mM; methanol: 17.5%; triethylamine: 0.01%; pH: 5.70) and 33 μl are analysed by HPLC with a reverse phase column thermostatically maintained at 45° C. and are quantified by means of a coulometric detector. The potential of the first electrode of the detector is set at -90 mV (reduction) and the second at +280 mV (oxidation). The mobile phase is injected with a pump at a flow rate of 2 ml/min. The sensitivity limits for dopamine, norepinephrine and serotonin are 0.55 fmole per sample. All the products of the invention are injected subcutaneously in a volume of 1.0 ml/kg. The products are dissolved in distilled water to which a few drops of lactic acid have been added if necessary.

T1 sequence (P31652 whole entry): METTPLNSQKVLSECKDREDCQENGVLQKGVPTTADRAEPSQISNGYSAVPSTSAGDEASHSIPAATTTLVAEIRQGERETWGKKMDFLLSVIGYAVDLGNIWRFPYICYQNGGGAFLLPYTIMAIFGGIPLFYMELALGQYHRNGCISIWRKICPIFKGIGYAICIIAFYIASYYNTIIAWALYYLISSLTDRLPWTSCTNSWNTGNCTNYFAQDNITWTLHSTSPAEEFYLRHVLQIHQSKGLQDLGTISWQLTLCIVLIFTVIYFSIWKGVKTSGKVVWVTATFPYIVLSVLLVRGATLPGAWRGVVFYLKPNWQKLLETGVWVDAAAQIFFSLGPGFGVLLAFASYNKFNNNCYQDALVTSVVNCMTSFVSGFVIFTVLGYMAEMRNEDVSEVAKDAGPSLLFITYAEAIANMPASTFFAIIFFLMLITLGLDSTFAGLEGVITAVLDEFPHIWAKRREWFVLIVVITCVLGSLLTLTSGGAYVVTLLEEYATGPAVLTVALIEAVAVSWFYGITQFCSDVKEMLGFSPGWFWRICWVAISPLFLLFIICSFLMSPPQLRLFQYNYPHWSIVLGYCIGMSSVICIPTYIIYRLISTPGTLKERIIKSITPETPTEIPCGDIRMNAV

c1ccc2c(c1)[C@@H]1CNC[C@]21COc1ccc2c(c1)OCO2 (relative stereo) [Example 1, cis-3a-[(3,4-Methylenedioxyphenoxy)methyl]-2,3,3a,7b-tetrahydro-1H-benzo[3,4]cyclobuta[1,2-c]pyrrole]
Ki [1]: 12.6 nM | ED50 [2]: < 5 mg/kg | increase in the level of dopamine, maximum % of the effect compared with the baseline level [3]: 54.8%±6.4 | increase in the level of noradrenaline, maximum % of the effect compared with the baseline level [3]: 96.4%±7.8 | increase in the level of serotonin, maximum % of the effect compared with the baseline level [3]: 226.3%±20.1
